# Test results: paper PMC12015293 (Communications Biology, 2025)
# Test system: osteoclastogenesis of bone marrow-derived monocyte/macrophage precursor cells (BMMs)
# Assay: RANKL-induced osteoclast differentiation of BMMs
# Format: cell-based, mouse (C57BL/6)
# Settings: 10 μM, late stage
compound,measurement,value
C[S+]([O-])c1ccc(-c2nc(-c3ccncc3)c(-c3ccc(F)cc3)[nH]2)cc1 (stereo not shown) [SB203580],effect of p38 inhibitor on osteoclastogenesis,also inhibited osteoclastogenesis
